ChEMBL document CHEMBL3046603, “Synthesis and antibacterial, antifungal activities of some 2r,4c-diaryl-3-azabicyclo[3.3.1]nonan-9-one-4-aminobenzoyl hydrazones” (2012)
The source made the active and inactive calls.

Assays:
Vibrio cholerae = test: Antibacterial activity against Vibrio cholerae after 24 hr two-fold serial dilution method; format: functional
Aspergillus flavus = test: Antifungal activity against Aspergillus flavus after 72 to 96 hr by two-fold serial dilution method; format: functional
Salmonella typhi = test: Antibacterial activity against Salmonella enterica subsp. enterica serovar Typhi MTCC 531 after 24 hr two-fold serial dilution method; format: functional; settings: MTCC 531, 24 h
Fusarium oxysporum = test: Antifungal activity against Fusarium oxysporum after 72 to 96 hr by two-fold serial dilution method; format: functional
Pseudomonas aeruginosa = test: Antibacterial activity against Pseudomonas aeruginosa MTCC 741 after 24 hr two-fold serial dilution method; format: functional; settings: MTCC 741, 24 h
Klebsiella pneumoniae = test: Antibacterial activity against Klebsiella pneumoniae MTCC 2272 after 24 hr two-fold serial dilution method; format: functional; settings: MTCC 2272, 24 h
Cryptococcus neoformans [1] = test: Antifungal activity against Cryptococcus neoformans at 200 ug/ml after 72 to 96 hr by two-fold serial dilution method; format: functional, organism-based
Staphylococcus aureus = test: Antibacterial activity against Staphylococcus aureus MTCC 96 after 24 hr two-fold serial dilution method; format: functional; settings: MTCC 96, 24 h
Bacillus subtilis = test: Antibacterial activity against Bacillus subtilis MTCC 121 after 24 hr two-fold serial dilution method; format: functional; settings: MTCC 121, 24 h
Salmonella typhimurium = test: Antibacterial activity against Salmonella enterica subsp. enterica serovar Typhimurium MTCC 98 after 24 hr two-fold serial dilution method; format: functional; settings: MTCC 98, 24 h
Escherichia coli = test: Antibacterial activity against Escherichia coli MTCC 443 after 24 hr two-fold serial dilution method; format: functional; settings: MTCC 443, 24 h
Cryptococcus neoformans [2] = test: Antifungal activity against Cryptococcus neoformans after 72 to 96 hr by two-fold serial dilution method; format: functional
Aspergillus niger = test: Antifungal activity against Aspergillus niger after 72 to 96 hr by two-fold serial dilution method; format: functional
Candida albicans = test: Antifungal activity against Candida albicans two-fold serial dilution method; format: functional

Nc1ccc(C(=O)NN=C2C3CCCC2C(c2ccccc2)NC3c2ccccc2)cc1 (configuration not stated)
100 µg/mL: MIC (Vibrio cholerae) | MIC (Bacillus subtilis)
50 µg/mL: MIC (Klebsiella pneumoniae)
inactive: Activity (Cryptococcus neoformans [1])
200 µg/mL: MIC (Aspergillus flavus) | MIC (Salmonella typhi) | MIC (Fusarium oxysporum) | MIC (Pseudomonas aeruginosa) | MIC (Staphylococcus aureus) | MIC (Salmonella typhimurium) | MIC (Escherichia coli)

C[C@@H]1[C@H](O)[C@@H](C)/C=C/C=C/C=C/C=C/C=C/C=C/C=C/[C@H](O[C@@H]2O[C@H](C)[C@@H](O)[C@H](N)[C@@H]2O)C[C@@H]2O[C@](O)(C[C@@H](O)C[C@@H](O)[C@H](O)CC[C@@H](O)C[C@@H](O)CC(=O)O[C@H]1C)C[C@H](O)[C@H]2C(=O)O [AMPHOTERICIN B]
25 µg/mL: MIC (Cryptococcus neoformans [2]) | MIC (Fusarium oxysporum) | MIC (Candida albicans)
50 µg/mL: MIC (Aspergillus flavus) | MIC (Aspergillus niger)

Nc1ccc(C(=O)NN=C2C3CCCC2C(c2ccc(F)cc2)NC3c2ccc(F)cc2)cc1 (configuration not stated)
100 µg/mL: MIC (Aspergillus niger) | MIC (Salmonella typhi) | MIC (Candida albicans) | MIC (Salmonella typhimurium) | MIC (Escherichia coli)
25 µg/mL: MIC (Bacillus subtilis)
200 µg/mL: MIC (Aspergillus flavus) | MIC (Cryptococcus neoformans [2]) | MIC (Pseudomonas aeruginosa)
50 µg/mL: MIC (Vibrio cholerae) | MIC (Fusarium oxysporum) | MIC (Klebsiella pneumoniae) | MIC (Staphylococcus aureus)

Nc1ccc(C(=O)NN=C2C3CCCC2C(c2ccc(Br)cc2)NC3c2ccc(Br)cc2)cc1 (configuration not stated)
100 µg/mL: MIC (Aspergillus flavus) | MIC (Cryptococcus neoformans [2]) | MIC (Fusarium oxysporum) | MIC (Escherichia coli)
200 µg/mL: MIC (Vibrio cholerae) | MIC (Candida albicans) | MIC (Klebsiella pneumoniae) | MIC (Bacillus subtilis) | MIC (Salmonella typhimurium)
50 µg/mL: MIC (Aspergillus niger) | MIC (Salmonella typhi) | MIC (Pseudomonas aeruginosa) | MIC (Staphylococcus aureus)

Nc1ccc(C(=O)NN=C2C3CCCC2C(c2ccccc2Cl)NC3c2ccccc2Cl)cc1 (configuration not stated)
100 µg/mL: MIC (Cryptococcus neoformans [2]) | MIC (Aspergillus niger) | MIC (Salmonella typhi) | MIC (Fusarium oxysporum) | MIC (Pseudomonas aeruginosa) | MIC (Escherichia coli)
200 µg/mL: MIC (Aspergillus flavus) | MIC (Candida albicans) | MIC (Staphylococcus aureus) | MIC (Bacillus subtilis)
50 µg/mL: MIC (Vibrio cholerae) | MIC (Klebsiella pneumoniae) | MIC (Salmonella typhimurium)

CN[C@@H]1[C@H](O[C@H]2[C@H](O[C@H]3[C@H](O)[C@@H](O)[C@H](N=C(N)N)[C@@H](O)[C@@H]3N=C(N)N)O[C@@H](C)[C@]2(O)C=O)O[C@@H](CO)[C@H](O)[C@H]1O [STREPTOMYCIN]
12.5 µg/mL: MIC (Bacillus subtilis)
50 µg/mL: MIC (Vibrio cholerae) | MIC (Pseudomonas aeruginosa) | MIC (Escherichia coli)
25 µg/mL: MIC (Salmonella typhi) | MIC (Staphylococcus aureus) | MIC (Salmonella typhimurium)
20 µg/mL: MIC (Klebsiella pneumoniae)

Nc1ccc(C(=O)NN=C2C3CCCC2C(c2ccc(Cl)cc2)NC3c2ccc(Cl)cc2)cc1 (configuration not stated)
50 µg/mL: MIC (Aspergillus niger) | MIC (Staphylococcus aureus) | MIC (Bacillus subtilis) | MIC (Escherichia coli)
200 µg/mL: MIC (Cryptococcus neoformans [2]) | MIC (Salmonella typhi) | MIC (Fusarium oxysporum) | MIC (Klebsiella pneumoniae) | MIC (Salmonella typhimurium)
100 µg/mL: MIC (Vibrio cholerae) | MIC (Aspergillus flavus) | MIC (Candida albicans) | MIC (Pseudomonas aeruginosa)

COc1ccc(C2NC(c3ccc(OC)cc3)C3CCCC2C3=NNC(=O)c2ccc(N)cc2)cc1 (configuration not stated)
50 µg/mL: MIC (Vibrio cholerae) | MIC (Aspergillus flavus)
100 µg/mL: MIC (Aspergillus niger) | MIC (Salmonella typhi) | MIC (Fusarium oxysporum) | MIC (Staphylococcus aureus) | MIC (Bacillus subtilis) | MIC (Escherichia coli)
200 µg/mL: MIC (Cryptococcus neoformans [2]) | MIC (Candida albicans) | MIC (Pseudomonas aeruginosa) | MIC (Klebsiella pneumoniae) | MIC (Salmonella typhimurium)

Cc1ccc(C2NC(c3ccc(C)cc3)C3CCCC2C3=NNC(=O)c2ccc(N)cc2)cc1 (configuration not stated)
100 µg/mL: MIC (Cryptococcus neoformans [2]) | MIC (Aspergillus niger) | MIC (Salmonella typhi) | MIC (Fusarium oxysporum) | MIC (Bacillus subtilis) | MIC (Escherichia coli)
200 µg/mL: MIC (Vibrio cholerae) | MIC (Aspergillus flavus) | MIC (Candida albicans) | MIC (Pseudomonas aeruginosa) | MIC (Klebsiella pneumoniae) | MIC (Staphylococcus aureus) | MIC (Salmonella typhimurium)
